Measurements: patent US8962628B2, “Herbicidal 5H-quinoxaline-6-one derivatives detailed description” (Syngenta Limited, priority 2010, dated 2015)

Columns and labels:
Format in all cases: in vivo
[1] = tested on: Amaranthus retroflexus; assay: Herbicidal action post-emergence (Example B2); conditions: post-emergence spray with adjuvant X-77, rate 500 g/ha, evaluated after 15 days; 10=total damage to plant, 0=no damage to plant
Method: (§1) Seeds of crop and representative weed species were sown in standard soil in pots. After cultivation for 14 days under controlled conditions in a glasshouse (at 22/16° C., day/night; 16 hours light; 65% humidity), the plants were sprayed. The spray solution was prepared by dissolving the technical active ingredient in acetone containing 10.56 wt % Emulsogen EL, 42.22 wt % N-methylpyrrolidone and 2.22 wt % DPG-monoethyl ether to give a 5% stock solution. This was then diluted with water containing 0.2% (v/v) of the adjuvant X-77 to give the desired treatment concentration.
(§2) The test plants were then grown on under controlled conditions in a glasshouse (at 22/16° C., day/night; 16 hours light; 65% humidity) and watered twice daily. After 15 days the test was evaluated (10=total damage to plant; 0=no damage to plant).

[2] = tested on: Echinochloa crus-galli; assay: Herbicidal action post-emergence (Example B2); conditions: post-emergence spray with adjuvant X-77, rate 500 g/ha, evaluated after 15 days; 10=total damage to plant, 0=no damage to plant
Method: as §1, §2

[3] = tested on: Ipomea hederaceae; assay: Herbicidal action post-emergence (Example B2); conditions: post-emergence spray with adjuvant X-77, rate 500 g/ha, evaluated after 15 days; 10=total damage to plant, 0=no damage to plant
Method: as §1, §2

[4] = tested on: Setaria faberi; assay: Herbicidal action post-emergence (Example B2); conditions: post-emergence spray with adjuvant X-77, rate 500 g/ha, evaluated after 15 days; 10=total damage to plant, 0=no damage to plant
Method: as §1, §2

[5] = tested on: Amaranthus retroflexus; assay: Herbicidal action post-emergence (Example B1); conditions: post-emergence spray, rate 1000 g/ha, evaluated after 13 days; 10=total damage to plant, 0=no damage to plant
Method: (§3) Seeds of a variety of test species were sown in standard soil in pots. After 8 days cultivation (post-emergence) under controlled conditions in a glasshouse (at 24/16° C., day/night; 14 hours light; 65% humidity), the plants were sprayed with an aqueous spray solution derived from the formulation of the technical active ingredient in acetone/water (50:50) solution containing 0.5% Tween 20 (polyoxyethelyene sorbitan monolaurate, CAS RN 9005-64-5). The test plants were then grown under controlled conditions in a glasshouse (at 24/16° C., day/night; 14 hours light; 65% humidity) and watered twice daily. After 13 days, the test was evaluated (10=total damage to plant; 0=no damage to plant).

[6] = tested on: Solanum nigrum; assay: Herbicidal action post-emergence (Example B1); conditions: post-emergence spray, rate 1000 g/ha, evaluated after 13 days; 10=total damage to plant, 0=no damage to plant
Method: as §3

[7] = tested on: Echinochloa crus-galli; assay: Herbicidal action post-emergence (Example B1); conditions: post-emergence spray, rate 1000 g/ha, evaluated after 13 days; 10=total damage to plant, 0=no damage to plant
Method: as §3

[8] = tested on: Ipomea hederaceae; assay: Herbicidal action post-emergence (Example B1); conditions: post-emergence spray, rate 1000 g/ha, evaluated after 13 days; 10=total damage to plant, 0=no damage to plant
Method: as §3

[9] = tested on: Setaria faberi; assay: Herbicidal action post-emergence (Example B1); conditions: post-emergence spray, rate 1000 g/ha, evaluated after 13 days; 10=total damage to plant, 0=no damage to plant
Method: as §3

CC(C)C(=O)OC1=C(c2ccccc2C(F)(F)F)C(=O)C(C)(C)c2nccnc21 [Compound F1, isobutyric acid 8,8-dimethyl-7-oxo-6-(2-trifluoromethyl-phenyl)-7,8-dihydro-quinoxalin-5-yl ester]
AMARE damage to plant (score 0-10) [1]: 10 | ECHCG damage to plant (score 0-10) [2]: 8 | IPOHE damage to plant (score 0-10) [3]: 8 | SETFA damage to plant (score 0-10) [4]: 8

CC1(C)C(=O)C(c2ccccc2C(F)(F)F)C(=O)c2nccnc21 (stereo not shown) [Compound E1, 8,8-dimethyl-6-(2-trifluoromethyl-phenyl)-8H-quinoxaline-5,7-dione]
AMARE damage to plant (score 0-10) [5]: 10 | SOLNI damage to plant (score 0-10) [6]: 10 | ECHCG damage to plant (score 0-10) [7]: 9 | IPOHE damage to plant (score 0-10) [8]: 9 | SETFA damage to plant (score 0-10) [9]: 9 | AMARE damage to plant (score 0-10) [1]: 10 | ECHCG damage to plant (score 0-10) [2]: 3 | IPOHE damage to plant (score 0-10) [3]: 8 | SETFA damage to plant (score 0-10) [4]: 7
